We go through 4 compounds from PMC5129256 (International Journal of Environmental Research and Public …, 2016).

Values joined by “and” are separate entries in the source; they are usually repeats but may differ in a detail not shown here. Equal values may be shown once. Read-outs that look alike come from different tables or passages of the source.

Series [1] in a line: in vitro. The conditions noted are these: chicken, Viability of LMH Cells (%) ± SD, MTT.
Series [2] has as its system LMH cells.
The subject of series [3] is laboratory mice. The conditions noted are these: mouse, in vivo; cited from earlier work.
The subject of series [4] is LMH cells. The conditions noted are these: PrestoBlue; for Viability of LMH Cells (%) ±S.E.M.: 24 h.
Series [5] relates to workers. Also noted: method as in ref 23 = [23]; 23. The MAK Collection for Occupational Health and Safety, Trimethylamine (MAK Value Documentation, 2004), Wiley Online Library Available online: http://onlinelibrary.wiley.com/doi/10.1002/3527600418. The conditions noted are these: cited from earlier work.

Broadly, the viability is a read-out of living cells in per cent, often relative to untreated cells. As for `CCCC(=O)O` [Butyric acid], in series [1] (LMH chicken liver hepatocellular carcinoma cells, 0.006%, 24 h), the viability at 24 h, 0.006 % worked out at 100 ± 0.7%. Besides, in series [1] (LMH chicken liver hepatocellular carcinoma cells, 0.006%, 72 h), the viability at 72 h, 0.006 % was determined as 98.2 ± 2.1%. Further, the viability at 24 h, 0.013 % in series [1] (LMH chicken liver hepatocellular carcinoma cells, 0.013%, 24 h) came out at 100 ± 0.4%. For the same compound, in series [1] (LMH chicken liver hepatocellular carcinoma cells, 0.013%, 72 h), the viability at 72 h, 0.013 % came out at 95.7 ± 2.1%. The viability at 24 h, 0.025 % in series [1] (LMH chicken liver hepatocellular carcinoma cells, 0.025%, 24 h) amounted to 100 ± 0.3%. Further, in series [1] (LMH chicken liver hepatocellular carcinoma cells, 0.025%, 72 h), the viability at 72 h, 0.025 % was 86 ± 4.8%. In addition, the viability at 24 h, 0.063 % in series [1] (LMH chicken liver hepatocellular carcinoma cells, 0.063%, 24 h) worked out at 68.9 ± 1.4%. Besides, in series [1] (LMH chicken liver hepatocellular carcinoma cells, 0.063%, 72 h), the viability at 72 h, 0.063 % was found to be 66.5 ± 3.2%. In addition, in series [1] (LMH chicken liver hepatocellular carcinoma cells, 0.125%, 24 h), the viability at 24 h, 0.125 % came to 65 ± 0.8%. For the same compound, the viability at 72 h, 0.125 % in series [1] (LMH chicken liver hepatocellular carcinoma cells, 0.125%, 72 h) turned out to be 46.4 ± 3.2%. Also, the viability at 24 h, 0.25 % in series [1] (LMH chicken liver hepatocellular carcinoma cells, 0.25%, 24 h) amounted to 59.4 ± 1.3%. Moreover, in series [1] (LMH chicken liver hepatocellular carcinoma cells, 0.25%, 72 h), the viability at 72 h, 0.25 % was found to be 31.1 ± 2%. Moreover, the viability at 24 h, 0.5 % in series [1] (LMH chicken liver hepatocellular carcinoma cells, 0.5%, 24 h) turned out to be 25.1 ± 0.7%. The viability at 72 h, 0.5 % in series [1] (LMH chicken liver hepatocellular carcinoma cells, 0.5%, 72 h) was 7.6 ± 0.7%. In series [1] (LMH chicken liver hepatocellular carcinoma cells, […], 24 h), the viability at 24 h, […] was 89.3 ± 2%. In addition, the viability at 72 h, […] in series [1] (LMH chicken liver hepatocellular carcinoma cells, […], 72 h) was determined as 67.2 ± 4.9%. For the same compound, in series [2], the “IC50 (%)” value is 0.32% and 0.11%. In series [2] (MTT, 0.5%, 72 h), this compound returned a cytotoxicity of 92.4%. In series [2] (MTT, 72 h exposure, concentrations above 0.0125%), this compound had a dose-dependent inhibition reached of 92%.
In the case of `CNC` [Dimethylamine], the “RD50 (concentration which reduces the rate of respiration by 50%)” value in series [3] is reported as 70 mL/m^3. For the same compound, in series [2], the “IC50 (%)” value turned out to be 0.06%; the IC80 is 0.04% and 0.04 * %; the “Viability of LMH Cells (%) ± SD” value was found to be 20.5 ± 0.1 %; the cytotoxicity entry is recorded as “above 80%”.
Turning to `c1ccc2[nH]ccc2c1` [Indole], the viability in series [1] (0.0004%, 24 h) was found to be 88.6 ± 0.6%; in series [1] (0.0004%, 72 h) it was 90.7 ± 1.3%; in series [1] (0.0008%, 24 h), 95 ± 0.2%; in series [1] (0.0008%, 72 h), 94.3 ± 2.4%; in series [1] (0.0016%, 24 h), 97.4 ± 0.2%; in series [1] (0.0016%, 72 h), 94.8 ± 2.1%. Besides, the viability in series [1] (0.0063%, 24 h) was determined as 103 ± 0.4%; in series [1] (0.0063%, 72 h), 109 ± 2.5%; in series [1] (0.0125%, 24 h), 95.5 ± 0.8%; in series [1] (0.0125%, 72 h), 103 ± 1.2%; in series [1] (0.025%, 24 h), 102.4 ± 0.2%; in series [1] (0.025%, 72 h), 73.5 ± 2%. Besides, the viability is 94.3 ± 0.6% in series [1] (0.05%, 24 h); 73 ± 1.7% in series [1] (0.05%, 72 h); 82.2 ± 0.2% in series [1] (0.1%, 24 h); 60.3 ± 1.6% in series [1] (0.1%, 72 h); 100 ± 0.4% in series [1] ([…], 24 h); 104 ± 1.9% in series [1] ([…], 72 h). Moreover, the “cytotoxicity (in words)” value in series [2] was “not cytotoxic”. In addition, the “IC50 (%)” value in series [2] (MTT, 72 h exposure, from dose-response curves) is reported as 0.06%. In series [2] (chicken), this compound returned a cytotoxicity of 39.7%.
Turning to `CN(C)C` [Trimethylamine], the RD50 in series [3] is 61 mL/m^3. The “Viability of LMH Cells (%) ±S.E.M.” value is 72.4 ± 5.4% in series [4] (0.004%); 54.3 ± 10.9% in series [4] (0.008%); 51.9 ± 2.9% in series [4] (0.016%); 36.6 ± 2.4% in series [4] (0.063%); 17.1 ± 2.3 % in series [4] (0.125%); 13.6 ± 2.3 % in series [4] (0.25%). Moreover, the “Viability of LMH Cells (%) ±S.E.M.” value in series [4] (0.5%) is given as 7.1 ± 0.4 %; in series [4] (1.0%), 6.0 ± 0.3 %; in series [4] ([…]) it was 38.9 ± 9.6%. Further, the “IC50 (%)” value in series [4] (24 h exposure, from dose-response curves) was found to be 0.02%; in series [2] (MTT, 24 h exposure, from dose-response curves), 0.08%; in series [2] (MTT, 48 h exposure, from dose-response curves), 0.04%. The cytotoxicity entry in series [2] was “above 95%”. The “Viability of LMH Cells (%) ± SD” value in series [2] (MTT, 0.004%, 24 h) amounted to 95.5 ± 1.9%; in series [2] (MTT, 0.004%, 48 h), 92.5 ± 5.5%; in series [2] (MTT, 0.008%, 24 h), 100.1 ± 3.1%; in series [2] (MTT, 0.008%, 48 h), 84.9 ± 8.1%; in series [2] (MTT, 0.016%, 24 h) it was 103.6 ± 2.2%; in series [2] (MTT, 0.016%, 48 h) it was 72.8 ± 6.5 %. Moreover, the “Viability of LMH Cells (%) ± SD” value in series [2] (MTT, 0.063%, 24 h) was 69.7 ± 5.9 %; in series [2] (MTT, 0.063%, 48 h), 2.8 ± 0.2 %; in series [2] (MTT, 0.125%, 24 h), 8.6 ± 0.5 %; in series [2] (MTT, 0.125%, 48 h), 5.4 ± 0.3 %; in series [2] (MTT, 0.25%, 24 h) it was 7.6 ± 0.3 %; in series [2] (MTT, 0.25%, 48 h) it was 4.1 ± 0.3 %. Further, the “Viability of LMH Cells (%) ± SD” value in series [2] (MTT, 0.5%, 24 h) is recorded as 7.9 ± 0.2 %; in series [2] (MTT, 0.5%, 48 h), 3.8 ± 0.3 %; in series [2] (MTT, 1.0%, 24 h), 7.0 ± 0.1 %; in series [2] (MTT, 1.0%, 48 h), 2.5 ± 0.3 %; in series [2] (MTT, […], 24 h), 97.8 ± 1.8%; in series [2] (MTT, […], 48 h) it was 61.7 ± 8.9 %. The “toxic effects in workers” value in series [5] (concentrations of 20 mL/m^3) was “irritant to the mucous membranes and the eyes”; in series [5] (mean exposure concentrations of 5 mL/m^3 for 8 h) it was “no toxic effects”.
